Publication PMC10770617, “27-Hydroxylation of oncosterone by CYP27A1 switches its activity from pro-tumor to anti-tumor” (Journal of Lipid Research, 2023)

Tests used:
CYP27A1 = biological target: T1, CYP27A1 (Homo sapiens, UniProt Q02318); experiment: inhibition of 27-hydroxylation of […]-CT in cells at […] (TLC); about […] (MDA-231) and […] (HepG2) reduction; format: cell-based
T1 construct: endogenous, MDA-231 and HepG2 cells
T1 sequence (Q02318 34-531): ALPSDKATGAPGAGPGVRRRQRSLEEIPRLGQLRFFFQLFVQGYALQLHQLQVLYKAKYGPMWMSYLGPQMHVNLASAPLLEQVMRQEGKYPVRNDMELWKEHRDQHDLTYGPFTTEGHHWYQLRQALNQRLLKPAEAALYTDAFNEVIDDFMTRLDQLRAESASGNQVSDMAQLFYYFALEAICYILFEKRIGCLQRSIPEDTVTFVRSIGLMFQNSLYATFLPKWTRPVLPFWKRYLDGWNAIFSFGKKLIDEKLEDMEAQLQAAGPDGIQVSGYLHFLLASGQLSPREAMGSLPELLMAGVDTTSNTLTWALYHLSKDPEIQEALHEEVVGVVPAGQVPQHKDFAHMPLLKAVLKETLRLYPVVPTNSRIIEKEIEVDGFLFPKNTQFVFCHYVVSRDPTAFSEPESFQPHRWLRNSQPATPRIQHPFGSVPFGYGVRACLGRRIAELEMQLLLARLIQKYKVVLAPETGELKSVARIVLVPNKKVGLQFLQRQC

[1] = biological target: T2, HSD2 (11β-hydroxysteroid dehydrogenase type 2) (Homo sapiens, UniProt P80365); experiment: inhibition of […]-CT to […]-OCDO conversion in HSD2-transfected HEK-293T lysate (TLC), Lineweaver-Burk and Dixon analysis; format: biochemical
T2 construct: gene HSD11B2; recombinant HSD2 (pCMV6-XL5 HSD2, SC122552) in HEK-293T cell lysate
T2 sequence (P80365 1-405): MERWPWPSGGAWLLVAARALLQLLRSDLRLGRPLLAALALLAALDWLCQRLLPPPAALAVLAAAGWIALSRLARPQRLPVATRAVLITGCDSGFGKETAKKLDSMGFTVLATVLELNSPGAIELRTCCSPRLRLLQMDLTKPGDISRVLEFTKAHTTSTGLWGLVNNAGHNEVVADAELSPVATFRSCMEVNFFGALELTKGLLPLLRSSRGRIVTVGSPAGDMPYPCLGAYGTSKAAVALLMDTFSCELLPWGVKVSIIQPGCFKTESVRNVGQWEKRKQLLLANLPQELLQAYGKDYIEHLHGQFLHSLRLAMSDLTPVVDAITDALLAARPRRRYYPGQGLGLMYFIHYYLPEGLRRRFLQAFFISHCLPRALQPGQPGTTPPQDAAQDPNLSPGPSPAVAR

`CC(O)(CS(=O)(=O)c1ccc(F)cc1)C(=O)Nc1ccc(C#N)c(C(F)(F)F)c1` (centres unmarked) [bicalutamide] showed an inhibition at 10 µM (CYP27A1) of ~60%.
For `C[C@@H](CO)CCC[C@@H](C)[C@H]1CC[C@H]2[C@@H]3C[C@@H](O)[C@@]4(O)C[C@@H](O)CC[C@]4(C)[C@H]3CC[C@]12C` [27H-CT, (25R)-cholestane-3β,5α,6β,26-tetrol], the Ki [1] was 2300 nM.
